Assay results from ChEMBL document CHEMBL1201862, “PubChem BioAssay data set” (2004).
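48-hour exposure; five concentrations; linearly interpolated endpoints. GI50 = concentration required for 50% inhibition of growth.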 The source made the active and inactive calls. Rule as the data show it: active = GI50 up to about 1.1 µM and inactive = higher.

How the values were obtained:
Assay in all cases: NCI anticancer screen, dose series, 48 h
[1] = tested on: HCT-15
[2] = tested on: IGROV-1
[3] = tested on: HL-60
[4] = tested on: M14
[5] = tested on: RPMI-8226
[6] = tested on: Hs-578T
[7] = tested on: SK-MEL-5
[8] = tested on: EKVX
[9] = tested on: SK-OV-3
[10] = tested on: 786-0
[11] = tested on: MDA-MB-435
[12] = tested on: KM12
[13] = tested on: HCT-116
[14] = tested on: CCRF-CEM
[15] = tested on: NCI-H460
[16] = tested on: OVCAR-4
[17] = tested on: UACC-257
[18] = tested on: K562
[19] = tested on: LOX IMVI
[20] = tested on: A498

SMILES	GI50 [1] [µM]	GI50 [2]	GI50 [3]	GI50 [4]	GI50 [5]	GI50 [6]	GI50 [7]	GI50 [8]	GI50 [9]	GI50 [10]	GI50 [11]	GI50 [12]	GI50 [13]	GI50 [14]	GI50 [15]	GI50 [16]	GI50 [17]	GI50 [18]	GI50 [19]	GI50 [20]
CN(C)Cc1cc(C(C)(C)C)cc(C2CCCCC2)c1O	15.3	18.8 µM (inactive)	18.2 µM (inactive)	24.6 µM (inactive)	< 0.01 µM (active)	16.6 µM (inactive)	14.4 µM (inactive)	11.9 µM (inactive)	15 µM (inactive)	20.7 µM (inactive)	20.3 µM (inactive)	13.6 µM (inactive)	40.7 µM (inactive)	13.5 µM (inactive)	19.1 µM (inactive)	12.1 µM (inactive)	10.1 µM (inactive)	12.2 µM (inactive)	15.2 µM (inactive)	
Cc1ccc(C)c(/C(=N\N=C(N)N)C2CC2)c1	48.6	32.7 µM (inactive)		39.6 µM (inactive)	28.8 µM (inactive)	26.1 µM (inactive)	36.2 µM (inactive)	43.9 µM (inactive)	> 100 µM (inactive)	37 µM (inactive)	22.8 µM (inactive)	39.9 µM (inactive)	26.4 µM (inactive)		18.1 µM (inactive)	> 100 µM (inactive)	31.6 µM (inactive)	20.5 µM (inactive)	32.4 µM (inactive)	47.5 µM (inactive)
NC(=S)NC/C=C/Cl	> 100	> 100 µM (inactive)	> 100 µM (inactive)	> 100 µM (inactive)	> 100 µM (inactive)	> 100 µM (inactive)	> 100 µM (inactive)	> 100 µM (inactive)	> 100 µM (inactive)	> 100 µM (inactive)	> 100 µM (inactive)	> 100 µM (inactive)	> 100 µM (inactive)	> 100 µM (inactive)	> 100 µM (inactive)	> 100 µM (inactive)	> 100 µM (inactive)	> 100 µM (inactive)	> 100 µM (inactive)	
COC(=O)C1=C(C)N2[C@H](C(=O)O)CS[C@@]2(C)[C@H](C(=O)OC)[C@H]1c1cccc([N+](=O)[O-])c1	> 100	> 100 µM (inactive)		> 100 µM (inactive)	> 100 µM (inactive)	> 100 µM (inactive)	> 100 µM (inactive)	> 100 µM (inactive)	> 100 µM (inactive)	> 100 µM (inactive)	> 100 µM (inactive)	> 100 µM (inactive)	> 100 µM (inactive)	> 100 µM (inactive)	> 100 µM (inactive)	> 100 µM (inactive)	> 100 µM (inactive)	> 100 µM (inactive)		> 100 µM (inactive)
O=C1C(=C/C=C2/SC(c3ccccc3)(c3ccccc3)c3ccccc32)C(=O)c2ccccc21	> 100	> 100 µM (inactive)		> 100 µM (inactive)	> 100 µM (inactive)	> 100 µM (inactive)	> 100 µM (inactive)	> 100 µM (inactive)	> 100 µM (inactive)	> 100 µM (inactive)	> 100 µM (inactive)	> 100 µM (inactive)	> 100 µM (inactive)		> 100 µM (inactive)	> 100 µM (inactive)	> 100 µM (inactive)	> 100 µM (inactive)	> 100 µM (inactive)	> 100 µM (inactive)
O=[N+]([O-])c1ccc(/N=N/c2c(O)ccc3cc(S(=O)(=O)O)ccc23)cc1	> 100	> 100 µM (inactive)		> 100 µM (inactive)	> 100 µM (inactive)	> 100 µM (inactive)	> 100 µM (inactive)	> 100 µM (inactive)	> 100 µM (inactive)	> 100 µM (inactive)	> 100 µM (inactive)	> 100 µM (inactive)	> 100 µM (inactive)	> 100 µM (inactive)		> 100 µM (inactive)	> 100 µM (inactive)	> 100 µM (inactive)	> 100 µM (inactive)	> 100 µM (inactive)
